Data as given in patent publication US10815222B2, “Compounds for use in the treatment of kinetoplastid infection” (C.N.C.C.S. S.c.a.r.l. COLLEZIONE NAZIONALE DEI COMPOSTI …, priority 2016, dated 2020).

System: Bloodstream form of Trypanosoma brucei, strain Lister 427
Assay: Trypanosoma brucei growth inhibition assay (CellTiter-Glo, 24 h)
Assay type: cell-based
Details: Trypanosoma brucei; T. Brucei Growth Inibition Assay, class symbols; read-out: T. Brucei GI EC50
Method in brief: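 Bloodstream-form T. brucei Lister 427, 1500 parasites per well in supplemented IMDM with 10% FBS, were exposed to compound (DMSO ≤0.25% final) for 24 h at 37 °C. Viability was measured by CellTiter-Glo luminescence.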

| SMILES | EC50 |
| --- | --- |
| COc1ccc2nc(C(F)(F)F)n(CC(=O)N3CCN(Cc4ccn(C)n4)CCC3c3ncc(-c4cc5ccccc5nc4OC)[nH]3)c2c1 (centres unmarked) [2-(6-methoxy-2-(trifluoromethyl)-1H-benzo[d]imidazol-1-yl)-1-(7-(5-(2-methoxyquinolin-3-yl)-1H-imidazol-2-yl)-4-((1-methyl-1H-pyrazol-3-yl)methyl)-1,4-diazepan-1-yl)ethan-1-one] | < 100 nM |
| COc1nc2ccccc2cc1-c1cnc([C@@H]2CCN(Cc3ccn(C)n3)CCN2C(=O)[C@](OC)(c2ccccc2)C(F)(F)F)[nH]1 | 1010 to 5000 nM |
| CN1CCN(C(=O)Cc2c[nH]c3ncccc23)C(c2ncc(-c3ccc4ccccc4c3)[nH]2)C1 (centres unmarked) | 1010 to 5000 nM |
| COc1nc2ccccc2cc1-c1cnc(C2CS(=O)(=O)CCN2C(=O)Cc2c(C)[nH]c3ccc(F)cc23)[nH]1 (centres unmarked) [2-(5-fluoro-2-methyl-1H-indol-3-yl)-1-(3-(5-(2-methoxyquinolin-3-yl)-1H-imidazol-2-yl)-1,1-dioxidothiomorpholino)ethan-1-one] | 100 to 500 nM |
| COc1ccc2nc(C)n(CC(=O)N3CCN(Cc4ccn(C)n4)C[C@H]3c3ncc(-c4cc5ccccc5nc4OC)[nH]3)c2c1 [(S)-2-(6-methoxy-2-methyl-1H-benzo[d]imidazol-1-yl)-1-(2-(5-(2-methoxyquinolin-3-yl)-1H-imidazol-2-yl)-4-((1-methyl-1H-pyrazol-3-yl)methyl)piperazin-1-yl)ethan-1-one] | < 100 nM |
| COc1nc2ccccc2cc1-c1cnc([C@@H]2CN(C3CCS(=O)(=O)CC3)CCN2C(=O)Cn2c(C(F)(F)F)nc3ccccc32)[nH]1 [(S)-1-(4-(1,1-dioxidotetrahydro-2H-thiopyran-4-yl)-2-(5-(2-methoxyquinolin-3-yl)-1H-imidazol-2-yl)piperazin-1-yl)-2-(2-(trifluoromethyl)-1H-benzo[d]imidazol-1-yl)ethan-1-one] | < 100 nM |
| COc1ccc2nc(C(F)(F)F)n(CC(=O)N3CC[C@H](OC)C[C@H]3c3ncc(-c4cc5ccccc5nc4OC)[nH]3)c2c1 [1-((2S,4S)-4-methoxy-2-(5-(2-methoxyquinolin-3-yl)-1H-imidazol-2-yl)piperidin-1-yl)-2-(6-methoxy-2-(trifluoromethyl)-1H-benzo[d]imidazol-1-yl)ethan-1-one] | < 100 nM |
| COc1ccc2nc(C(F)(F)F)n(CC(=O)N3CC[C@H](NC4CCC4)C[C@H]3c3ncc(-c4cc5ccccc5nc4OC)[nH]3)c2c1 [1-((2S,4S)-4-(cyclobutylamino)-2-(5-(2-methoxyquinolin-3-yl)-1H-imidazol-2-yl)piperidin-1-yl)-2-(6-methoxy-2-(trifluoromethyl)-1H-benzo[d]imidazol-1-yl)ethan-1-one] | < 100 nM |
| Cc1[nH]c2ccc(F)cc2c1CC(=O)N1CCN(CC2CCOC2)CC1c1ncc(-c2ccc(-n3cccn3)cc2)[nH]1 (centres unmarked) | 1010 to 5000 nM |
| COc1nc2ccccc2cc1-c1cnc(C2CN(CC3CCOC3)CCN2C(=O)Cc2c(C)[nH]c3ccccc23)[nH]1 (centres unmarked) | 100 to 500 nM |
| CCC(=O)CCCN1CCN(C(=O)Cc2c(C)[nH]c3ccc(OC)cc23)C(c2ncc(-c3cc4ccccc4nc3OC)o2)C1 (centres unmarked) | 1010 to 5000 nM |
| CCCCCCN1CCN(C(=O)CC2=C(C)NC3C=CC=CC23)C(c2ncc(-c3cc4ccccc4nc3OC)[nH]2)C1 (centres unmarked) | 100 to 500 nM |
| COc1nc2ccccc2cc1-c1cnc(C2CN(CC3CCOC3)CCN2C(=O)c2nccc3ccccc23)[nH]1 (centres unmarked) | 1010 to 5000 nM |
| COc1nc2ccccc2cc1-c1cnc(C2CS(=O)(=O)CCN2C(=O)Cn2c(C)nc3ccccc32)[nH]1 (centres unmarked) | 1010 to 5000 nM |
| CN1CCN(S(=O)(=O)Cc2ccccc2)C(c2ncc(-c3ccc4ccccc4c3)[nH]2)C1 (centres unmarked) [1-(benzylsulfonyl)-4-methyl-2-(5-(naphthalen-2-yl)-1H-imidazol-2-yl)piperazine] | 1010 to 5000 nM |
| COc1ccc2cc(C)n(CC(=O)N3CCN(C)CCC3c3ncc(-c4cc5ccccc5nc4OC)[nH]3)c2c1 (centres unmarked) | 510 to 1000 nM |
| COc1nc2ccccc2cc1-c1cnc(C2CN(C(=O)OCc3ccccc3)CCN2C(=O)Cn2c(C)nc3ccccc32)[nH]1 (centres unmarked) | 1010 to 5000 nM |
| COc1ccc2nc(C(F)(F)F)n(CC(=O)N3CCN(Cc4ccccn4)CCC3c3ncc(-c4cc5ccccc5nc4OC)[nH]3)c2c1 (centres unmarked) [2-(6-methoxy-2-(trifluoromethyl)-1H-benzo[d]imidazol-1-yl)-1-(7-(5-(2-methoxyquinolin-3-yl)-1H-imidazol-2-yl)-4-(pyridin-2-ylmethyl)-1,4-diazepan-1-yl)ethan-1-one] | < 100 nM |
| COc1ccc2nc(C)n(CC(=O)N3CCN(CC4COC4)C[C@H]3c3ncc(-c4cc5ccccc5nc4OC)[nH]3)c2c1 [(S)-2-(6-methoxy-2-methyl-1H-benzo[d]imidazol-1-yl)-1-(2-(5-(2-methoxyquinolin-3-yl)-1H-imidazol-2-yl)-4-(oxetan-3-ylmethyl)piperazin-1-yl)ethan-1-one] | < 100 nM |
| CN1CCN(C(=O)Cc2cn(C)c3ccccc23)C(c2ncc(-c3ccc4ccccc4c3)[nH]2)C1 (centres unmarked) | 1010 to 5000 nM |
| CCC(=O)CCCN1CCN(C(=O)C2CCN(C)CC2)C(c2ncc(-c3ccc4ccccc4c3)[nH]2)C1 (centres unmarked) | 1010 to 5000 nM |

| SMILES | EC50 |
| --- | --- |
| CCCCCCN1CCN(C(=O)Cc2n[nH]c3ccccc23)C(c2ncc(-c3ccc4ccccc4c3)[nH]2)C1 (centres unmarked) | 1010 to 5000 nM |
| COc1nc2ccccc2cc1-c1cnc(C2CN(CC3CCOC3)CCN2C(=O)c2sc(-c3cnccn3)nc2C)[nH]1 (centres unmarked) | 1010 to 5000 nM |
| CCC(=O)CCCN1CCN(C(=O)Cc2c(C)[nH]c3ccc(OC)cc23)C(c2ncc(-c3ccccc3)[nH]2)C1 (centres unmarked) | 100 to 500 nM |
| COc1nc2ccccc2cc1-c1cnc([C@@H]2CN(CC3CCOC3)CCN2C(=O)Cn2c(C)nc3ncncc32)[nH]1 (some centres unmarked) | 1010 to 5000 nM |
| COc1ccc2nc(C)n(CC(=O)N3CCN(CC4CCOC4)C[C@H]3c3ncc(-c4cnc5ccccc5c4)[nH]3)c2c1 (some centres unmarked) | 510 to 1000 nM |
| COc1ccc2nc(C)n(CC(=O)N3CCN(Cc4nccs4)CCC3c3ncc(-c4cc5ccccc5nc4OC)[nH]3)c2c1 (centres unmarked) [2-(6-methoxy-2-methyl-1H-benzo[d]imidazol-1-yl)-1-(7-(5-(2-methoxyquinolin-3-yl)-1H-imidazol-2-yl)-4-(thiazol-2-ylmethyl)-1,4-diazepan-1-yl)ethan-1-one] | < 100 nM |
| COc1ccc2nc(C)n(CC(=O)N3CCN(CC4CCOC4)C[C@H]3c3ncc(C#Cc4ccccn4)[nH]3)c2c1 (stereo partly drawn) [2-(6-methoxy-2-methyl-1H-benzo[d]imidazol-1-yl)-1-((2S)-2-(5-(pyridin-2-ylethynyl)-1H-imidazol-2-yl)-4-((tetrahydrofuran-3-yl)methyl)piperazin-1-yl)ethan-1-one] | 1010 to 5000 nM |
| COc1nc2ccccc2cc1-c1cnc([C@@H]2CN(Cc3cncnc3)CCN2C(=O)Cn2c(C(F)(F)F)nc3ccccc32)[nH]1 [(S)-1-(2-(5-(2-methoxyquinolin-3-yl)-1H-imidazol-2-yl)-4-(pyrimidin-5-ylmethyl)piperazin-1-yl)-2-(2-(trifluoromethyl)-1H-benzo[d]imidazol-1-yl)ethan-1-one] | < 100 nM |
| COc1ccc2nc(C(F)(F)F)n(CC(=O)N3CCN(C4CCOCC4)CCC3c3ncc(-c4cc5ccccc5nc4OC)[nH]3)c2c1 (centres unmarked) [2-(6-methoxy-2-(trifluoromethyl)-1H-benzo[d]imidazol-1-yl)-1-(7-(5-(2-methoxyquinolin-3-yl)-1H-imidazol-2-yl)-4-(tetrahydro-2H-pyran-4-yl)-1,4-diazepan-1-yl)ethan-1-one] | < 100 nM |
| COc1ccc2nc(C(F)(F)F)n(CC(=O)N3CCN(C4CCCC4)CCC3c3ncc(-c4cc5ccccc5nc4OC)[nH]3)c2c1 (centres unmarked) | 100 to 500 nM |
| COc1ccc2nc(C(F)(F)F)n(CC(=O)N3CCN(C4CCS(=O)(=O)CC4)C[C@H]3c3ncc(-c4cc5ccccc5nc4OC)[nH]3)c2c1 [(S)-1-(4-(1,1-dioxidotetrahydro-2H-thiopyran-4-yl)-2-(5-(2-methoxyquinolin-3-yl)-1H-imidazol-2-yl)piperazin-1-yl)-2-(6-methoxy-2-(trifluoromethyl)-1H-benzo[d]imidazol-1-yl)ethan-1-one] | < 100 nM |
| COc1ccccc1C(=O)N1CCN(C)CC1c1ncc(-c2ccc3ccccc3c2)[nH]1 (centres unmarked) | 1010 to 5000 nM |
| CCCCCCN1CCN(C(=O)Cc2c[nH]c3cccnc23)C(c2ncc(-c3ccc4ccccc4c3)[nH]2)C1 (centres unmarked) | 1010 to 5000 nM |
| CCC(=O)CCCN1CCN(C(=O)Cn2ccnn2)C(c2ncc(-c3ccc4ccccc4c3)[nH]2)C1 (centres unmarked) | 1010 to 5000 nM |
| COc1nc2ccccc2cc1-c1cnc([C@@H]2CN(Cc3ncco3)CCN2C(=O)Cn2c(C(F)(F)F)nc3ccccc32)[nH]1 [(S)-1-(2-(5-(2-methoxyquinolin-3-yl)-1H-imidazol-2-yl)-4-(oxazol-2-ylmethyl)piperazin-1-yl)-2-(2-(trifluoromethyl)-1H-benzo[d]imidazol-1-yl)ethan-1-one] | < 100 nM |
| COc1ccc2nc(C(F)(F)F)n(CC(=O)N3CCN(Cc4ncco4)CCC3c3ncc(-c4cc5ccccc5nc4OC)[nH]3)c2c1 (centres unmarked) [2-(6-methoxy-2-(trifluoromethyl)-1H-benzo[d]imidazol-1-yl)-1-(7-(5-(2-methoxyquinolin-3-yl)-1H-imidazol-2-yl)-4-(oxazol-2-ylmethyl)-1,4-diazepan-1-yl)ethan-1-one] | < 100 nM |
| COc1ccc2nc(C)n(CC(=O)N3CCN(C[C@H]4CCOC4)CC3c3ncc(-c4ccc(-c5ccccc5)nc4OC)[nH]3)c2c1 (some centres unmarked) | 100 to 500 nM |
| COc1ccc2nc(C(F)(F)F)n(CC(=O)N3CC[C@H](N[C@H]4CCOC4)C[C@H]3c3ncc(-c4cc5ccccc5nc4OC)[nH]3)c2c1 [2-(6-methoxy-2-(trifluoromethyl)-1H-benzo[d]imidazol-1-yl)-1-((2S,4S)-2-(5-(2-methoxyquinolin-3-yl)-1H-imidazol-2-yl)-4-(((S)-tetrahydrofuran-3-yl)amino)piperidin-1-yl)ethan-1-one] | < 100 nM |
| COc1nc2ccccc2cc1-c1cnc(C2CN(Cc3ccccc3)CCN2C(=O)Cc2c(C)[nH]c3ccc(F)cc23)[nH]1 (centres unmarked) | 100 to 500 nM |
| COc1nc2ccccc2cc1-c1cnc(C2CN(CC3CC3)CCN2C(=O)Cc2c(C)[nH]c3ccc(F)cc23)[nH]1 (centres unmarked) | 100 to 500 nM |
